# Experimental data as given in US20260257186A1, “Tunable Structure of Biodegradable Silk-Based Microcapsules for Soluble and Insoluble Payload Delivery” (MASSACHUSETTS INSTITUTE OF TECHNOLOGY, priority 2021, published 2026).
# Experiments:
# [1] = Release of SF/Saf microcapsules, released Saf by UV-Vis; assay type: physicochemical; conditions: without silk encapsulation; 10% Pluronic PE 10500 aqueous suspension; FIG. 5C
# Procedure: Release of SF/Saf microcapsules: around 5 mg of different SF/Saf microcapsules were dispersed in 50 mL of 10% Pluronic PE 10500 aqueous suspension, wrapped in Al foil and under 20 rpm mind shaking. After certain time intervals, 0.75 mL of suspension was taken for UV-Vis measurement to determine the concentration of released Saf. The characteristic UV absorption peak position of Saf is around 271 nm.
# All release and degradation tests were run in triplicates, and the standard errors for the analytical results were used to generate and present error bars.
# The surface morphologies of microcapsules structures were investigated using a Zeiss Merlin High-resolution SEM operating at 0.8 kV for low-, medium- and high-resolution imaging. The elemental analysis was carried out on Zeiss Merlin SEM with energy-dispersive X-ray spectroscopy (EDS). Optical images of SF/DA emulsions were taken with a Nikon Eclipse TE2000-E optical microscope. The concentrations of released VC and Saf were determined by ultraviolet-visible (UV-Vis) spectroscopy on a VWR UV-1600PC spectrophotometer. Chemical structures of SF were studied with Fourier transform infrared (FTIR) spectroscopy from a Perkin Elmer Spectrum 65 spectrometer with the attenuated total reflection (ATR) accessory. […] The data was analyzed on volume-based distribution.
# [2] = cited from earlier work
compound,measurement,setting,value
"CC(C)N(C)S(=O)(=O)NC(=O)c1cc(-n2c(=O)cc(C(F)(F)F)n(C)c2=O)c(F)cc1Cl [Saf, Saflufenacil]",burst release of Saf,[1],~25%
same,solubility in organic solvents,[2]; organic solvents,limited
same,thermal decomposition T,[2]; solid powder,around 236 °C
same,solubility in water,[2]; water,2 g/L
